Source: US20170253607A1, “LONG-ACTING HIV PROTEASE INHIBITOR” (Shionogi & Co., Ltd., priority 2014, published 2017)

Biological target: HIV-1 PR (Human immunodeficiency virus type 1 group M subtype B, UniProt P04585)
Assay: HIV-protease inhibitory activity assay (FRET peptide substrate)
Assay type: biochemical
Conditions: Test Example 1
Procedure, shortened: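 Inhibition of HIV-1 protease was measured as loss of fluorescence dequenching of a HiLyte Fluor 488/QXL 520 peptide at 2 μmol/L, pH 4.8, room temperature, 60 minute reaction. IC50 was derived by nonlinear four-parameter fitting.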

Structure (SMILES) | IC50 [nM]
COc1ccc(S(=O)(=O)N(CC(C)C)CC(O)C(Cc2ccc(N(C)Cc3ccncc3-c3sc4c(c3C(=O)O)CC(C)(C)CC4)cc2)NC(=O)OC2COC3(C)OCCC23)cc1 (stereo not shown) [Compound I-489] | 1.81
COc1ccc(S(=O)(=O)N(CC(C)C)CC(O)C(Cc2ccc(N(C)Cc3cccc(F)c3-c3sc4c(c3C(=O)O)CC(C)(C)CC4)cc2)NC(=O)OC2COC3(C)OCCC23)cc1 (stereo not shown) [Compound I-493] | 2.43
COc1ccc(S(=O)(=O)N(CC(C)C)CC(O)C(Cc2ccc(N(C)Cc3cccc(-c4sc5c(c4C(=O)O)CC(C)(C)CC5)n3)cc2)NC(=O)OC2COC3(C)OCCC23)cc1 (stereo not shown) [Compound I-494] | 1.46
COc1ccc(S(=O)(=O)N(CC(C)C)CC(O)C(Cc2ccc(NCc3ccccc3-c3c(C(=O)O)[nH]c4c3CCCC4=O)cc2)NC(=O)OC2COC3(C)OCCC23)cc1 (stereo not shown) [Compound I-495] | 1.48
COc1ccc(S(=O)(=O)N(CC(C)C)CC(O)C(Cc2ccc(NCc3ccccc3-c3cc4c(cc3C(=O)O)OCCO4)cc2)NC(=O)OC2COC3(C)OCCC23)cc1 (stereo not shown) [Compound I-496] | 1.81
COc1ccc(S(=O)(=O)N(CC(C)C)CC(O)C(Cc2ccc(NCc3ccccc3-c3ccccc3C(=O)O)cc2)NC(=O)OC2COC3(C)OCCC23)cc1 (stereo not shown) [Compound I-497] | 1.96
COc1ccc(S(=O)(=O)N(CC(C)C)CC(O)C(Cc2ccc(NCc3ccccc3-c3ccsc3C(=O)O)cc2)NC(=O)OC2COC3(C)OCCC23)cc1 (stereo not shown) [Compound I-498] | 1.83
COc1ccc(S(=O)(=O)N(CC(C)C)CC(O)C(Cc2ccc(NCc3ccccc3-c3ccc(OC(F)(F)F)cc3C(=O)O)cc2)NC(=O)OC2COC3(C)OCCC23)cc1 (stereo not shown) [Compound I-499] | 1.73
COc1ccc(S(=O)(=O)N(CC(C)C)CC(O)C(Cc2ccc(NCc3ccccc3-c3c(C(=O)O)cnc4ccc(OC)cc34)cc2)NC(=O)OC2COC3(C)OCCC23)cc1 (stereo not shown) [Compound I-500] | 1.78
COc1ccc(S(=O)(=O)N(CC(C)C)CC(O)C(Cc2ccc(NCc3ccccc3-c3c(C(=O)O)cnc4ccsc34)cc2)NC(=O)OC2COC3(C)OCCC23)cc1 (stereo not shown) [Compound I-501] | 1.82
COc1ccc(S(=O)(=O)N(CC(C)C)CC(O)C(Cc2ccc(NCc3ccccc3-c3cccc4[nH]c(C(=O)O)cc34)cc2)NC(=O)OC2COC3(C)OCCC23)cc1 (stereo not shown) [Compound I-502] | 1.87
COc1ccc(S(=O)(=O)N(CC(C)C)CC(O)C(Cc2ccc(NCc3ccccc3-c3ccc4cc(C(=O)O)[nH]c4c3)cc2)NC(=O)OC2COC3(C)OCCC23)cc1 (stereo not shown) [Compound I-503] | 1.68
COc1ccc(S(=O)(=O)N(CC(C)C)CC(O)C(Cc2ccc(NCc3ccccc3-c3c(C(=O)O)cnc4sccc34)cc2)NC(=O)OC2COC3(C)OCCC23)cc1 (stereo not shown) [Compound I-504] | 1.93
COc1ccc(S(=O)(=O)N(CC(C)C)CC(O)C(Cc2ccc(NCc3ccccc3-c3c(C(=O)O)cnc4onc(C)c34)cc2)NC(=O)OC2COC3(C)OCCC23)cc1 (stereo not shown) [Compound I-505] | 1.55
COc1ccc(S(=O)(=O)N(CC(C)C)CC(O)C(Cc2ccc(NCc3ccccc3-c3c(C(=O)O)[nH]c4ccc(OC)cc34)cc2)NC(=O)OC2COC3(C)OCCC23)cc1 (stereo not shown) [Compound I-506] | 1.7
COc1ccc(S(=O)(=O)N(CC(C)C)CC(O)C(Cc2ccc(N3CC4CC(Oc5ccccc5-c5sc6c(c5C(=O)O)CC(C)(C)CC6)CC4C3)cc2)NC(=O)OC2COC3(C)OCCC23)cc1 (stereo not shown) [Compound I-508] | 8.48
COc1ccc(S(=O)(=O)N(CC(C)C)CC(O)C(Cc2ccc(N(C)Cc3ncccc3-c3cccc(-c4sc5c(c4C(=O)O)CC(C)(C)CC5)c3)cc2)NC(=O)OC2COC3(C)OCCC23)cc1 (stereo not shown) [Compound I-512] | 1.63
COc1ccc(S(=O)(=O)N(CC(C)C)CC(O)C(Cc2ccc(NCCn3nc4c(c3C(=O)O)CC(C)(C)CC4)cc2)NC(=O)OC2COC3(C)OCCC23)cc1 (stereo not shown) [Compound I-516] | 2.29
COc1ccc(S(=O)(=O)N(CC(C)C)CC(O)C(Cc2ccc(N(C)CCn3nc4c(c3C(=O)O)CC(C)(C)CC4)cc2)NC(=O)OC2COC3(C)OCCC23)cc1 (stereo not shown) [Compound I-517] | 2.56
COc1ccc(S(=O)(=O)N(CC(C)C)CC(O)C(Cc2ccc(NCCOc3ccc(-c4sc5c(c4C(=O)O)CC(C)(C)CC5)c(C)c3)cc2)NC(=O)OC2COC3(C)OCCC23)cc1 (stereo not shown) [Compound I-518] | 5.63
COc1ccc(S(=O)(=O)N(CC(C)C)CC(O)C(Cc2ccc(-n3cccc3)cc2)NC(=O)OC2COC3(C)OCCC23)cc1 (stereo not shown) [Compound I-521] | 2.84
COc1ccc(S(=O)(=O)N(CC(C)C)CC(O)C(Cc2ccc(N3CCC(c4ccccc4-c4sc5c(c4C(=O)O)CC(C)(C)CC5)C3)cc2)NC(=O)OC2COC3(C)OCCC23)cc1 (stereo not shown) [Compound I-523] | 9.44
COc1ccc(S(=O)(=O)N(CC(C)C)CC(O)C(Cc2ccc(NCC3=C(c4sc5c(c4C(=O)O)CC(C)(C)CC5)COC3)cc2)NC(=O)OC2COC3(C)OCCC23)cc1 (stereo not shown) [Compound I-527] | 1.99

Structure (SMILES) | IC50 [nM]
COc1ccc(S(=O)(=O)N(CC(C)C)CC(O)C(Cc2ccc(NCc3cccc(-c4ccccc4)c3-c3sc4c(c3C(=O)O)CC(C)(C)CC4)cc2)NC(=O)OC2COC3(C)OCCC23)cc1 (stereo not shown) [Compound I-529] | 4.98
COc1ccc(S(=O)(=O)N(CC(C)C)CC(O)C(Cc2ccc(NCc3cc(C)c(-c4sc5c(c4C(=O)O)CC(C)(C)CC5)c(C)c3)cc2)NC(=O)OC2COC3(C)OCCC23)cc1 (stereo not shown) [Compound I-533] | 10.6
COc1ccc(S(=O)(=O)N(CC(C)C)CC(O)C(Cc2ccc(NCc3ccc(-c4sc5c(c4C(=O)O)CC(C)(C)CC5)c(C)c3)cc2)NC(=O)OC2COC3(C)OCCC23)cc1 (stereo not shown) [Compound I-534] | 4.11
COc1ccc(S(=O)(=O)N(CC(C)C)CC(O)C(Cc2ccc(NCc3c(C)c(C)c(-c4sc5c(c4C(=O)O)CC(C)(C)CC5)c(C)c3C)cc2)NC(=O)OC2COC3(C)OCCC23)cc1 (stereo not shown) [Compound I-535] | 43.1
COc1ccc(S(=O)(=O)N(CC(C)C)CC(O)C(Cc2ccc(NC3c4ccccc4C(=O)N3c3sc4c(c3C(=O)O)CC(C)(C)CC4)cc2)NC(=O)OC2COC3(C)OCCC23)cc1 (stereo not shown) [Compound I-536] | 2.1
COc1ccc(S(=O)(=O)N(CC(C)C)CC(O)C(Cc2ccc(NCc3cccc(-c4sc5c(c4C(=O)O)CC(C)(C)CC5)c3F)cc2)NC(=O)OC2COC3(C)OCCC23)cc1 (stereo not shown) [Compound I-543] | 2.14
COc1ccc(S(=O)(=O)N(CC(C)C)CC(O)C(Cc2ccc(NCc3cccc(-c4sc5c(c4C(=O)O)CC(C)(C)CC5)c3Cl)cc2)NC(=O)OC2COC3(C)OCCC23)cc1 (stereo not shown) [Compound I-544] | 3.65
COc1ccc(S(=O)(=O)N(CC(C)C)CC(O)C(Cc2ccc(NCc3c(-c4sc5c(c4C(=O)O)CC(C)(C)CC5)cccc3[N+](=O)[O-])cc2)NC(=O)OC2COC3(C)OCCC23)cc1 (stereo not shown) [Compound I-546] | 1.86
COc1ccc(S(=O)(=O)N(CC(C)C)CC(O)C(Cc2ccc(NCc3cc(Cl)ccc3-c3sc4c(c3C(=O)O)CC(C)(C)CC4)cc2)NC(=O)OC2COC3(C)OCCC23)cc1 (stereo not shown) [Compound I-547] | 2.28
COc1ccc(S(=O)(=O)N(CC(C)C)CC(O)C(Cc2ccc(NCc3ccc(O)cc3-c3sc4c(c3C(=O)O)CC(C)(C)CC4)cc2)NC(=O)OC2COC3(C)OCCC23)cc1 (stereo not shown) [Compound I-548] | 1.49
COc1ccc(S(=O)(=O)N(CC(C)C)CC(O)C(Cc2ccc(NCc3cc(C)cc(-c4sc5c(c4C(=O)O)CC(C)(C)CC5)c3)cc2)NC(=O)OC2COC3(C)OCCC23)cc1 (stereo not shown) [Compound I-549] | 1.55
COc1ccc(S(=O)(=O)N(CC(C)C)CC(O)C(Cc2ccc(NCc3ccc(-c4sc5c(c4C(=O)O)CC(C)(C)CC5)nc3)cc2)NC(=O)OC2COC3(C)OCCC23)cc1 (stereo not shown) [Compound I-551] | 1.34
COc1ccc(S(=O)(=O)N(CC(C)C)CC(O)C(Cc2ccc(NCc3cc(OC)cc(-c4sc5c(c4C(=O)O)CC(C)(C)CC5)c3OC)cc2)NC(=O)OC2COC3(C)OCCC23)cc1 (stereo not shown) [Compound I-553] | 1.92
COc1ccc(S(=O)(=O)N(CC(C)C)CC(O)C(Cc2ccc(NCc3ccc(-c4sc5c(c4C(=O)O)CC(C)(C)CC5)c(OC)c3)cc2)NC(=O)OC2COC3(C)OCCC23)cc1 (stereo not shown) [Compound I-554] | 1.77
COc1ccc(S(=O)(=O)N(CC(C)C)CC(O)C(Cc2ccc(NCc3cc(C)c(-c4sc5c(c4C(=O)O)CC(C)(C)CC5)cc3C)cc2)NC(=O)OC2COC3(C)OCCC23)cc1 (stereo not shown) [Compound I-556] | 5.45
COc1ccc(S(=O)(=O)N(CC(C)C)CC(O)C(Cc2ccc(NCc3cncc(-c4sc5c(c4C(=O)O)CC(C)(C)CC5)c3)cc2)NC(=O)OC2COC3(C)OCCC23)cc1 (stereo not shown) [Compound I-557] | 1.67
COc1ccc(S(=O)(=O)N(CC(C)C)CC(O)C(Cc2ccc(NCc3cccc(-c4sc5c(c4C(=O)O)CC(C)(C)CC5)c3OCc3ccccc3)cc2)NC(=O)OC2COC3(C)OCCC23)cc1 (stereo not shown) [Compound I-558] | 4.99
COc1ccc(S(=O)(=O)N(CC(C)C)CC(O)C(Cc2ccc(NCc3cnc(-c4sc5c(c4C(=O)O)CC(C)(C)CC5)c(C)c3)cc2)NC(=O)OC2COC3(C)OCCC23)cc1 (stereo not shown) [Compound I-559] | 1.87
COc1ccc(S(=O)(=O)N(CC(C)C)CC(O)C(Cc2ccc(NCc3cc(O)cc(-c4sc5c(c4C(=O)O)CC(C)(C)CC5)c3)cc2)NC(=O)OC2COC3(C)OCCC23)cc1 (stereo not shown) [Compound I-562] | 1.98
COc1ccc(S(=O)(=O)N(CC(C)C)CC(O)C(Cc2ccc(NCc3ccc(Oc4ccc(-c5sc6c(c5C(=O)O)CC(C)(C)CC6)cc4)cc3)cc2)NC(=O)OC2COC3(C)OCCC23)cc1 (stereo not shown) [Compound I-564] | 14.2
COc1ccc(S(=O)(=O)N(CC(C)C)CC(O)C(Cc2ccc(NCc3ccc(C#N)cc3-c3sc4c(c3C(=O)O)CC(C)(C)CC4)cc2)NC(=O)OC2COC3(C)OCCC23)cc1 (stereo not shown) [Compound I-565] | 1.75
COc1ccc(S(=O)(=O)N(CC(C)C)CC(O)C(Cc2ccc(NCc3nc4ccccc4cc3-c3sc4c(c3C(=O)O)CC(C)(C)CC4)cc2)NC(=O)OC2COC3(C)OCCC23)cc1 (stereo not shown) [Compound I-568] | 1.54
COc1ccc(S(=O)(=O)N(CC(C)C)CC(O)C(Cc2ccc(N(C)CC3=C(c4sc5c(c4C(=O)O)CC(C)(C)CC5)COC3)cc2)NC(=O)OC2COC3(C)OCCC23)cc1 (stereo not shown) [Compound I-569] | 2.22
